In assay [1] the target is T1, Her2 exon 20 YVMA insertion (A775_G776ins YVMA) (Homo sapiens, UniProt P04626, INS775YVMA).
T1 construct: expressed in transfected cells; host or cells: Ba/F3 (murine pro-B) cells, lentiviral transduction with pLVX-IRES puro
The assay can be described thus: Ba/F3-Her2 Exon20 YVMA cell anti-proliferation assay (MTS). It counts as cell-based. The following applies: Ba/F3-Her2 Exon20 YVMA cells, 72 h, MTS signal. An excerpt:
A compound's ability in selectively inhibiting Her2 exon 20 YVMA insertion mutations can be assessed using Ba/F3 cells, a murine pro-B cell line, which have been transduced with Her2 Exon20 YVMA insertions. An expression vector, pLVX-IRES puro (Clontech) coding for human EGFR exon 20 insertions YVMA (A775_G776ins YVMA), was transfected into HEK293 cells by the Trans-Lentiviral ORF Packaging System (Thermo Scientific), to produce virus encoding EGFR exon 20 insertions. Ba/F3 (DSMZ) cells maintained in RPM11640 medium supplemented with 10% fetal bovine serum, 200 pM L-glutamine/200 μg/mL penicillin/200 μg/mL streptomycin (Life Technology) and 10 ng/mL IL-3 (R&D system), were infected by EGFR Exon20 virus and subsequently selected by puromycin (Life Technology) selection and IL-3 depletion. Ba/F3 cells expressing Her2 Exon20 YVMA insertions (named Ba/F3-Her2 Exon20 YVMA) can proliferate in the absence of IL-3. The anti-proliferative activity of compounds was determined as follows: BaF3-Her2 Exon20 YVMA cells seeded in 96 well plates (2500 cells/well) were treated with test compound (dissolved in DMSO) at a series of concentrations (4-fold dilution, top concentration: 10,000 nM). The plates were incubated for 72 h in a 37° C. incubator with 5% CO2, and the number of viable cells in each well were measured indirectly by CellTiter 96® Aqueous One Solution Cell Proliferation Assay (Promega; this assay is a colorimetric method for determining the number of viable cells through measurement of their metabolic activity by detection of enzymatic conversion of tetrazolium salts into blue formazan derivatives). Reagent (20 pL) was added into each well, and the plates were returned to the incubator for 2 h. The absorbance in each well was then measured at 490 nm using an Envision plate reader (Perkin Elmer). IC50 values were calculated by determining the concentration of compound required to decrease the MTS signal by 50% comparing to the DMSO control in best-fit curves using Microsoft XLfit software or Accelrys Pipeline Pilot.

For assay [2], the target named is EGFR exon 20 NPG insertion (H773_V774insNPG) (Homo sapiens, UniProt P00533, cells depend on it, form not given). Description: Ba/F3-EGFR-Exon20-NPG cell anti-proliferation assay (MTS, CellTiter 96 AQueous One). The format is cell-based. Particulars: 72 h, MTS signal. An excerpt:
A compound's ability in selectively inhibiting EGFR exon 20 insertion mutations can be assessed using Ba/F3 cells, a murine pro-B cell line, which have been transduced with EGFR exon 20 insertions. An expression vector, pLVX-IRES puro (Clontech) coding for human EGFR exon 20 insertions NPG (H773_V774insNPG) or ASV (V769_D770insASV), was transfected into HEK293 cells by the Trans-Lentiviral ORF Packaging System (Thermo Scientific), to produce virus encoding EGFR exon 20 insertions. Ba/F3 (DSMZ) cells maintained in RPM11640 medium supplemented with 10% fetal bovine serum, 200 pM L-glutamine/200 µg/mL penicillin/200 µg/mL streptomycin (Life Technology) and 10 ng/mL IL-3 (R&D system), were infected by EGFR Exon20 virus and subsequently selected by puromycin (Life Technology) selection and IL-3 depletion. Ba/F3 cells expressing EGFR exon 20 insertions (named Ba/F3-EGFR-Exon20-NPG or Ba/F3-EGFR-Exon20-ASV) can proliferate in the absence of IL-3. The anti-proliferative activity of compounds were determined as follows: BaF3-EGFR-Exon20 cells (NPG or ASV) seeded in 96 well plates (2500 cells/well) were treated with test compound (dissolved in DMSO) at a series of concentrations (4-fold dilution, top concentration: 10,000 nM). The plates were incubated for 72 h in a 37° C. incubator with 5% CO2, and the number of viable cells in each well were measured indirectly by CellTiter 96® Aqueous One Solution Cell Proliferation Assay (Promega) This assay is a colorimetric method for determining the number of viable cells through measurement of their metabolic activity by detection of enzymatic conversion of tetrazolium salts into blue formazan derivatives. Reagent (20 pL) was added into each well, and the plates were returned to the incubator for 2 h. The absorbance in each well was then measured at 490 nm using an Envision plate reader (Perkin Elmer). IC50 values were calculated by determining the concentration of compound required to decrease the MTS signal by 50% comparing to the DMSO control in best-fit curves using Microsoft XLfit software or Accelrys Pipeline Pilot.

Where only a bound is given, the exact number is not on record here.

Usually IC50 stands for the concentration needed to halve the response being measured.

T1 sequence (P04626 with tags, fused parts or gaps INS775YVMA): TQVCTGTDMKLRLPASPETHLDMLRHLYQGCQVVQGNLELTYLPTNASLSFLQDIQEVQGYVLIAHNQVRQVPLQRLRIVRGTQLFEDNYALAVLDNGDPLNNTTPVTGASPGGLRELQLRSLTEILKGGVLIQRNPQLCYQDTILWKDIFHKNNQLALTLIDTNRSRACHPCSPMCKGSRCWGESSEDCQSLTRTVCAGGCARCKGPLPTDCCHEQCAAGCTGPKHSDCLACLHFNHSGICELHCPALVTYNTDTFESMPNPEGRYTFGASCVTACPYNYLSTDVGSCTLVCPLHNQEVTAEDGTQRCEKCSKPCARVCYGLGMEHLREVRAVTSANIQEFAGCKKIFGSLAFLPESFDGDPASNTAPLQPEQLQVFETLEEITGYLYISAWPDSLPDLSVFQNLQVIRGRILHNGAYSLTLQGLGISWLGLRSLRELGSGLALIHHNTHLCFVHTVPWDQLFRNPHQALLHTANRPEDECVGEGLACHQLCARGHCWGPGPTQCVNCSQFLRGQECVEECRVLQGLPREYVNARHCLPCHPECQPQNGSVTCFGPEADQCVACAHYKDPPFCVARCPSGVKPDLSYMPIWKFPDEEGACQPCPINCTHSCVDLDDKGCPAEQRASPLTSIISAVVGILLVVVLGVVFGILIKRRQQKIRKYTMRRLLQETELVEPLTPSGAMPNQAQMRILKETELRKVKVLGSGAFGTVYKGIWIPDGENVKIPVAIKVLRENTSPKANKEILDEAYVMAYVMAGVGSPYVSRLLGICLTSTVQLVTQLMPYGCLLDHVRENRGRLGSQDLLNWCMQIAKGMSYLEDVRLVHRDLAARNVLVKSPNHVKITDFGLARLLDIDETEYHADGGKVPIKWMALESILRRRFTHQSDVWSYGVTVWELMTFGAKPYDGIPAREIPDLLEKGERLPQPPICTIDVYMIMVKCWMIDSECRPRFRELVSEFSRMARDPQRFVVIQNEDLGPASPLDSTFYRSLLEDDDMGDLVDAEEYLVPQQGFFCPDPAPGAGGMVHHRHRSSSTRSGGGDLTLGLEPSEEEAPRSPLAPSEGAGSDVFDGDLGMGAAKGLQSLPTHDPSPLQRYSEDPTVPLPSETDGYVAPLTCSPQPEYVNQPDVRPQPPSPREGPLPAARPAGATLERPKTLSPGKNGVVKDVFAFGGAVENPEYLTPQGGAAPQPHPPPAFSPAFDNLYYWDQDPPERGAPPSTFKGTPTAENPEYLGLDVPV
Sequence of EGFR exon 20 NPG insertion (H773_V774insNPG) (P00533 with tags, fused parts or gaps INS772GNP, form open): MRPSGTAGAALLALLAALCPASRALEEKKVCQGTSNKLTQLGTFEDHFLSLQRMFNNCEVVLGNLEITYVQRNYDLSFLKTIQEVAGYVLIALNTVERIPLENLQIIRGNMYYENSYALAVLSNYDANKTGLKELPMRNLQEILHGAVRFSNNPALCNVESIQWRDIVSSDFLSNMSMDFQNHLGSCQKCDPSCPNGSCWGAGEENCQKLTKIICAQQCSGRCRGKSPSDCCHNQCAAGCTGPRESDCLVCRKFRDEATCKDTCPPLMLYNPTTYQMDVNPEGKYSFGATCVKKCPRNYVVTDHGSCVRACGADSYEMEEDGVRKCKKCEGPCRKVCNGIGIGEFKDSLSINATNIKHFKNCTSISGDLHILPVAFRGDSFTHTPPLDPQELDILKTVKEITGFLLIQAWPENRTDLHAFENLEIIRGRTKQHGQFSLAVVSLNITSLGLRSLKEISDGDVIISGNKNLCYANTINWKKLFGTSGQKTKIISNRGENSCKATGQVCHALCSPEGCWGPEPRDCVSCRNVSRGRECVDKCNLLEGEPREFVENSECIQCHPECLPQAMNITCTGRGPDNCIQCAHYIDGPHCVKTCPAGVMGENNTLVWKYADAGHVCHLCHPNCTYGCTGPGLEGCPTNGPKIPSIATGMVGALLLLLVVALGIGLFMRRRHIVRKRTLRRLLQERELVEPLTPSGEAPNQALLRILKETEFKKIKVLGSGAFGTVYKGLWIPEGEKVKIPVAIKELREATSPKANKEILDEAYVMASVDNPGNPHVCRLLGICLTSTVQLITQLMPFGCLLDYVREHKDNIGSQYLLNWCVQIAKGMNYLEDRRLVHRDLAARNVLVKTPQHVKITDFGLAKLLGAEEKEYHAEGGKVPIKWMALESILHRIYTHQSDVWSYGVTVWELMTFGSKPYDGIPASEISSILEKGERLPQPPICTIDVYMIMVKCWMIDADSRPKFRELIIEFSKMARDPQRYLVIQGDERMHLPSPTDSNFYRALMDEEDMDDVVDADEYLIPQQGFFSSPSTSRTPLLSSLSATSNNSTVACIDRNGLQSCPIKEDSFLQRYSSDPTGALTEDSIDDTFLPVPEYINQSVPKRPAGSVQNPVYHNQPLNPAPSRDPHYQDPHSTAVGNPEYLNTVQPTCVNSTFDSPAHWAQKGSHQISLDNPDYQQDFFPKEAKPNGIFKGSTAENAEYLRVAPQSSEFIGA

For `C=CC(=O)Nc1cc(Nc2nccc(-c3c4n(c5ccccc35)CCOC4)n2)c(OC)cc1N(C)CCN(C)C` [Example 1, N-(5-((4-(3,4-dihydro-1H-[1,4]oxazino[4,3-a]indol-10-yl)pyrimidin-2-yl)amino)-2-((2-(dimethylamino)ethyl)(methyl)amino)-4-methoxyphenyl)acrylamide], the IC50 is 0.1 to 0.5 µM in assay [1] and less than 0.1 µM in assay [2].
`C=CC(=O)Nc1cc(Nc2nccc(-c3c4n(c5ccccc35)CCN(C)C4=O)n2)c(OC)cc1N(C)CCN(C)C` [Example 2, N-(2-((2-(dimethylamino)ethyl)(methyl)amino)-4-methoxy-5-((4-(2-methyl-1-oxo-1,2,3,4-tetrahydropyrazino[1,2-a]indol-10-yl)pyrimidin-2-yl)amino)phenyl)acrylamide] gave a 50% inhibitory concentration (IC50) in assay [1] greater than 1 µM.
For the compound `C=CC(=O)Nc1cc(Nc2nccc(-c3c4n(c5ccccc35)CC(O)CC4)n2)c(OC)cc1N(C)CCN(C)C` (stereo not shown) [Example 3, N-(2-((2-(dimethylamino)ethyl)(methyl)amino)-5-((4-(7-hydroxy-6,7,8,9-tetrahydropyrido[1,2-a]indol-10-yl)pyrimidin-2-yl)amino)-4-methoxyphenyl)acrylamide], the IC50 is 0.1 to 0.5 µM in assay [1] and less than 0.1 µM in assay [2].
Take `C=CC(=O)Nc1cc(Nc2nccc(-c3c4n(c5ccccc35)CC3OC(C)(C)OC3C4)n2)c(OC)cc1N(C)CCN(C)C` (stereo not drawn) [Example 4, N-(5-((4-(cis-2,2-dimethyl-3a,4,11,11a-tetrahydro-[1,3]dioxolo[4′,5′:4,5]pyrido[1,2-a]indol-10-yl)pyrimidin-2-yl)amino)-2-((2-(dimethylamino)ethyl)(methyl)amino)-4-methoxyphenyl)acrylamide]: the IC50 in assay [1] was less than 0.1 µM.
Same read-out and setting: under `C=CC(=O)Nc1cc(Nc2nccc(-c3c4n(c5ccccc35)CCCC4)n2)c(OC)cc1N(C)CCN(C)C` [Example 5, N-(2-((2-(dimethylamino)ethyl)(methyl)amino)-4-methoxy-5-((4-(6,7,8,9-tetrahydropyrido[1,2-a]indol-10-yl)pyrimidin-2-yl)amino)phenyl)acrylamide] stands 0.1 to 0.5 µM; under `C=CC(=O)Nc1cc(Nc2nccc(-c3c4n(c5ccccc35)CC(O)C(O)C4)n2)c(OC)cc1N(C)CCN(C)C` (stereo not drawn) [Example 6, N-(5-((4-(cis-7,8-dihydroxy-6,7,8,9-tetrahydropyrido[1,2-a]indol-10-yl)pyrimidin-2-yl)amino)-2-((2-(dimethylamino)ethyl)(methyl)amino)-4-methoxyphenyl)acrylamide], 0.1 to 0.5 µM; under `C=CC(=O)Nc1cc(Nc2nccc(-c3c4n(c5ccccc35)CC(OC)CC4)n2)c(OC)cc1N(C)CCN(C)C` (stereo not shown) [Example 7, N-(2-((2-(dimethylamino)ethyl)(methyl)amino)-4-methoxy-5-((4-(7-methoxy-6,7,8,9-tetrahydropyrido[1,2-a]indol-10-yl)pyrimidin-2-yl)amino)phenyl)acrylamide], 0.1 to 0.5 µM.
The same measure, in the same setting: under `C=CC(=O)Nc1cc(Nc2nccc(-n3c4c(c5ccccc53)CC(O)CC4)n2)c(OC)cc1N(C)CCN(C)C` (stereo not shown) [Example 10, N-(2-((2-(dimethylamino)ethyl)(methyl)amino)-5-((4-(3-hydroxy-1,2,3,4-tetrahydro-9H-carbazol-9-yl)pyrimidin-2-yl)amino)-4-methoxyphenyl)acrylamide] stands less than 0.1 µM.

For the origin of these results see patent publication US20210323976A1, “HETEROARYL COMPOUNDS FOR KINASE INHIBITION” (ARIAD Pharmaceuticals, Inc., priority 2015, published 2021).
